Assay results: patent US20020172694A1, “Extended release formulation of diltiazem hydrochloride” (DOV Pharmaceutical, Inc., priority 2001, published 2002)
Counter-ions that a name gives are not always drawn.

Columns and labels:
[1] = single oral dose, healthy individual, FIG. 6
Experimental: One hundred twenty milligrams (120 mg) of diltiazem hydrochloride powder were combined with a 360 mg dose of DILTIAZEM OD ER. […] Consequently, this mixture contained approximately 25 percent by weight of a quick release preparation of diltiazem, and approximately 75 percent by weight of a slow release preparation of diltiazem, based upon the percentage of diltiazem in the final mixture.
The resulting mixture was then encapsulated in a larger gelatin capsule and orally administered to a healthy individual, taking no medications which would affect diltiazem plasma levels or interfere with their proper determination. Controls containing either 120 mg diltiazem hydrochloride or 360 mg Diltiazem ER were administered separately. An interval of approximately 5-7 days elapsed between the administration of each agent tested in this example.
An intravenous blood sample was withdrawn into pre-cooled, commercially available [sequence] (TM) containing EDTA (ethylenediamine tetraacetic acid) as an anticoagulant Just before administration of the test agent; this sample represented the zero time sample. The blood sample was centrifuged for 15 minutes under conditions known to those skilled in the art. […] The plasma levels of diltiazem were determined by HPLC (High Performance Liquid Chromatography) analysis according to the method of Eradiri (36).

[2] = in vivo; cited from earlier work
angina pectoris = details: cited from earlier work

| Structure (SMILES) | time after administration by which most of the preparation is gone [1] | time to peak plasma levels of diltiazem after administration [1] | plasma half-life [2] | incidence of side effects versus other calcium channel blockers (angina pectoris; comparative studies) | efficacy versus beta-adrenergic receptor blockers, nitrates and verapamil (angina pectoris; in vivo) | efficacy versus nifedipine (angina pectoris; in vivo) |
| --- | --- | --- | --- | --- | --- | --- |
| COc1ccc([C@@H]2Sc3ccccc3N(CCN(C)C)C(=O)[C@@H]2OC(C)=O)cc1 [diltiazem hydrochloride] | 5 to 6 h | 1 to 2 h |  |  |  |  |
| COc1ccc([C@@H]2Sc3ccccc3N(CCN(C)C)C(=O)[C@@H]2OC(C)=O)cc1 [diltiazem, 25-cis-3-(Acetoxyl)-5-[2-(dimethylamino)ethyl]-2-3-dihydro-2-(4-methoxyphenyl)-1,5-benzothiazepin-4(5H)-one] |  |  | 2 to 6 h | lower incidence of side effects | equivalent | more effective |
